Results reported in US20070259866A1, “Method of Adenovirus, HIV and HPV Prophylaxis” (priority 1999, published 2007).
Values joined by “and” are separate entries in the source; they are usually repeats but may differ in a detail not shown here. Equal entries are not always repeated.

Tests used:
[1] = tested on: NL-HX (T cell-tropic isolate) Virus; test: Control infections: untreated NL-HX virus added to PBMC cultures containing the final dilution of the drug; format: cell-based, Human Immunodeficiency Virus (HIV); conditions: for Control culture: # infected cells/area (~500 cells) / Control culture: Average # infected cells/area: untreated virus; for Control culture: # infected cells/area (~500 cells): single area counts
Description: (§1) After the 1 hr treatment period, the virus-drug solutions were diluted 1:1,000 with complete medium, and then mixed with an equal volume of Peripheral Blood Mononucleocyte (PBMC) cells, for a final dilution of virus and drug of 1:4,000.
(§2) The infected cultures were then incubated without any washing or other changes in media for 4 days (for the M-tropic NL-HX-ADA type) and 8 days (for the T-tropic NL-HX type). The cultures were then assayed for infection using standard fluorescent focus assays to quantitate infected cells.
Control infections were performed by adding untreated viruses at a p24 concentration of 1 ng/ml into cultures containing the final dilution of the drug. This controlled for any residual effect the diluted drug may have on the health of the PBMC culture and their ability to replicate virus.

[2] = tested on: NL-HX (T cell-tropic isolate) Virus; test: Inactivation of HIV stock by 1 hr drug treatment, then PBMC infection, fluorescent focus assay (NL-HX); format: cell-based, Human Immunodeficiency Virus (HIV); conditions: for Average # infected cells/area / # infected cells/area (~500 cells): 8 days; for # infected cells/area (~500 cells): single area counts
Description: In a study of the prophylactic effects of Compound 96 on Human Immunodeficiency Virus (HIV), virus stock solutions were inactivated by treatment with Compound 96. Stock solutions of viral types NL-HX-ADA having a p24 concentration of 4.1 μg/ml and NL-HX (P122) having a p24 concentration of 3.8 μg/ml were used for the study, along with a stock solution of Compound 96 having a concentration of 20 mg/ml in RPMI media.
Concentrated stock solution of viruses were treated for 1 hr with equal volume of medium containing the drug at the following concentrations:
as §1, §2

[3] = tested on: NL-HX-ADA (molecularly cloned macrophage-tropic type of HIV-1); test: Extended dose response for inactivation of HIV-1 by CTC96, fluorescent focus assay in PBMCs; format: cell-based; conditions: 1 hour
Description: • Stock virus: NL-HX-ADA ˜5.5 μg/ml p24 (This is a molecularly cloned macrophage-tropic type of HIV-1). Virus was used to infect cells at 1:4,000 final dilution (˜1.4 ng/ml p24). Stock CTC-96: 10 mg/ml prepared directly in RPMI 1640 Method: Concentrated stock solution of virus was treated for 1 hour with equal volume of medium containing the drug at the indicated concentrations (1:2 dilution). The virus/drug mixture was then diluted 1,000-fold (1:2,000 dilution) and then added to an equal volume of PHA-activated humans PBMCs (1:4,000 final dilution) to allow virus replication to occur. The extent of infection was measured after 4 days by a fluorescent focus assay and compared to that of a control culture not containing any drug.

varicella-zoster virus = test: Inhibition of varicella-zoster virus infection in vitro; format: cell-based
Excerpt: Compound 96 inhibited varicella-zoster virus infection >98% in vitro.

[4] = virus treated 1 hr at 0.625 mg/ml
[5] = virus treated 1 hr at 1.25 mg/ml
[6] = virus treated 1 hr at 2.5 mg/ml

In the case of `CC1=CC(C)=[N+]2CC[N+]3=C(C)C=C(C)[O][Co-4]23([n+]2cc[nH]c2C)([n+]2cc[nH]c2C)[O]1.[Br-]` [Compound 96], the “toxicity or inhibition in control cultures receiving the diluted drugs” value ([1]; even at the highest concentration tested (5 μg/ml)) was “No toxicity or inhibition”, the “Control culture: # infected cells/area (~500 cells)” value ([1]; culture with final dilution of the 0.625 mg/ml (residual 0.3 μg/ml)) was 11 cells/area and 10 cells/area and the “Control culture: # infected cells/area (~500 cells)” value ([1]; culture with final dilution of the 1.25 mg/ml (residual 0.6 μg/ml)) was 9 cells/area and 8 cells/area and 11 cells/area and 10 cells/area. The “Control culture: # infected cells/area (~500 cells)” value ([1]; culture with final dilution of the 2.5 mg/ml column (residual 1.25 μg/ml)) was 10 cells/area and 11 cells/area, the “Control culture: # infected cells/area (~500 cells)” value ([1]; culture with final dilution of the 5 mg/ml column (residual 2.5 μg/ml)) was 10 cells/area and 8 cells/area and 9 cells/area and the “Control culture: # infected cells/area (~500 cells)” value ([1]; culture with final dilution of the 10 mg/ml column (residual 5 μg/ml)) was 10 cells/area and 9 cells/area and 11 cells/area. The “Control culture: Average # infected cells/area” value ([1]; final dilution of the 0.625 mg/ml column (residual 0.3 μg/ml)) was 10.3 cells/area, the “Control culture: Average # infected cells/area” value ([1]; final dilution of the 1.25 mg/ml column (residual 0.6 μg/ml)) was 9.5 cells/area and the “Control culture: Average # infected cells/area” value ([1]; final dilution of the 2.5 mg/ml column (residual 1.25 μg/ml)) was 10.3 cells/area. The “Control culture: Average # infected cells/area” value ([1]; final dilution of the 5 mg/ml column (residual 2.5 μg/ml)) was 8.8 cells/area, the “Control culture: Average # infected cells/area” value ([1]; final dilution of the 10 mg/ml column (residual 5 μg/ml)) was 9.8 cells/area and the reduction in infectivity ([2]; any drug-treated sample vs control infection (800-1200 infected cells per well)) was ≥ 1,000 fold. For the same compound, the “infected cells when the entire well was scanned” value ([2]; any of the drug-treated samples) was “No infected cells were detected”, the “inactivation of treated virus” value ([2]; even at the lowest concentration of drug tested (0.625 mg/ml), 1 hr treatment) was “completely inactivated” and the “Average # infected cells/area” value [2, 4] was 0 cells/area. The “# infected cells/area (~500 cells)” value [2, 4] was 0 cells/area, the “Average # infected cells/area” value [2, 5] was 0 cells/area and the “# infected cells/area (~500 cells)” value [2, 5] was 0 cells/area. For the same compound, the “Average # infected cells/area” value [2, 6] was 0 cells/area, the “# infected cells/area (~500 cells)” value [2, 6] was 0 cells/area and the “Average # infected cells/area” value ([2]; virus treated 1 hr at 5 mg/ml) was 0 cells/area. The “# infected cells/area (~500 cells)” value ([2]; virus treated 1 hr at 5 mg/ml) was 0 cells/area, the “Average # infected cells/area” value ([2]; virus treated 1 hr at 10 mg/ml) was 0 cells/area and the “# infected cells/area (~500 cells)” value ([2]; virus treated 1 hr at 10 mg/ml) was 0 cells/area. The “% Neutralization” value ([3]; Batch A: [CTC96] during incubation with virus 5 mg/ml (initial 10 mg/ml; after final dilution 2.5 ng/ml)) was 100%, the “% Neutralization” value ([3]; Batch B: [CTC96] during incubation with virus 2.5 mg/ml (initial 5 mg/ml; after final dilution 1.25 ng/ml)) was 100% and the “% Neutralization” value ([3]; Batch C: [CTC96] during incubation with virus 1.25 mg/ml (initial 2.5 mg/ml; after final dilution 0.61 ng/ml)) was 100%. The “% Neutralization” value ([3]; Batch D: [CTC96] during incubation with virus 0.625 mg/ml (initial 1.25 mg/ml; after final dilution 0.31 ng/ml)) was 100%, the “% Neutralization” value ([3]; Batch E: [CTC96] during incubation with virus 0.312 mg/ml (initial 0.6 mg/ml; after final dilution 0.156 ng/ml)) was 83% and the “% Neutralization” value ([3]; Batch F: [CTC96] during incubation with virus 0.156 mg/ml (initial 0.3 mg/ml; after final dilution 0.078 ng/ml)) was 63%. For the same compound, the “% Neutralization” value ([3]; Batch G: [CTC96] during incubation with virus 0.078 mg/ml (initial 0.156 mg/ml; after final dilution 0.039 ng/ml)) was 55%, the “% Neutralization” value ([3]; Batch H: [CTC96] during incubation with virus 0.039 mg/ml (initial 0.078 mg/ml; after final dilution 0.019 ng/ml)) was 18% and the “% Neutralization” value ([3]; Batch I: [CTC96] during incubation with virus 0.019 mg/ml (initial 0.039 mg/ml; after final dilution 0.009 ng/ml)) was 1%. The “% Neutralization” value ([3]; Batch J: [CTC96] during incubation with virus 0.009 mg/ml (initial 0.019 mg/ml; after final dilution 0.0045 µg/ml)) was 2%, the “% Neutralization” value ([3]; Batch K: [CTC96] during incubation with virus 0.0045 mg/ml (initial 0.009 mg/ml; after final dilution 0.0023 ng/ml)) was 1% and the “inhibited varicella-zoster virus infection” value (varicella-zoster virus) was over 98%.
